Assay results: patent US20240252488A1 (KOREA RESEARCH INSTITUTE OF CHEMICAL TECHNOLOGY, priority 2020, published 2024)

Assays:
[1] = tested on: FADD−/− Jurkat cells; test: Necroptosis inhibition assay, TNF-α-induced necroptosis (CellTiter-Glo 2.0); type: cell-based, human; details: TNF-α 15 ng/mL; for Necroptosis inhibition assay (Rescue %) 1 μM: compound 1 μM; for Necroptosis inhibition assay (Rescue %) 10 μM: compound 10 μM
How it was run: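 Compound is added to cells at final concentrations of 0.1, 1 and 10 μM and left 30 minutes at room temperature. Necroptosis is induced with 15 ng/mL TNF-α, culture continues 20 to 24 hours at 37° C, and ATP-based luminescence reports viability.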

[2] = target: T1, MLKL (Homo sapiens, UniProt Q8NB16); test: MLKL degradation assay in HepG2 cell line (western blot); type: cell-based; parameters: endogenous in cells; host or cells: HepG2 or HaCaT; details: cell line not given; for Degradation assay (Degradation %) 1 μM: compound 1 μM; for Degradation assay (Degradation %) 10 μM: compound 10 μM
T1 sequence (Q8NB16 1-471): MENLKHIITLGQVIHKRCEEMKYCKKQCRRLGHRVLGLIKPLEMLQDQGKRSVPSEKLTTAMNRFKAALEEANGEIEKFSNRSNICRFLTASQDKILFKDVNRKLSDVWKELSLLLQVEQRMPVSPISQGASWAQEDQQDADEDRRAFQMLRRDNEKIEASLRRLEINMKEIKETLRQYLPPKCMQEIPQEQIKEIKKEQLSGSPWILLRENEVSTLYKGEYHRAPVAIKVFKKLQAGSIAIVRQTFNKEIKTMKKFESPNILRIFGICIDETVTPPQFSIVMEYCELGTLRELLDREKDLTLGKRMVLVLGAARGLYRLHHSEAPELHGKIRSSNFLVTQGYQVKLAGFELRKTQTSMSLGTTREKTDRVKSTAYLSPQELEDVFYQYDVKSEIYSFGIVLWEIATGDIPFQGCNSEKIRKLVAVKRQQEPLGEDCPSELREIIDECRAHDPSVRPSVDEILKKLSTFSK
How it was run: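 Chemiluminescent western blot signal reports remaining MLKL protein in HepG2 cells after 20-24 h treatment with compound at a final 1 or 10 μM. Equal protein (10-15 μg, BCA) is loaded per lane.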

[3] = target: T1, MLKL; test: Measurement of binding affinity with MLKL receptor (competitive binding assay, Kd); parameters: made in house; host or cells: HEK 293 cell line (T7 phage in E. coli BL21-derived host is also described)
How it was run: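 Competition binding of kinase tagged with DNA for qPCR detection, expressed in HEK 293 cells, against immobilized ligand on beads. Final DMSO 0.9%. Kd derived from kinase amount in eluates measured by qPCR.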

Structure (SMILES)	Degradation assay (Degradation %) 1 μM [2] [%]	Degradation assay (Degradation %) 10 μM [2] [%]	Kd [3] [nM]	Necroptosis inhibition assay (Rescue %) 1 μM ([1]; FADD−/− Jurkat cells) [%]	Necroptosis inhibition assay (Rescue %) 10 μM ([1]; FADD−/− Jurkat cells) [%]	Necroptosis inhibition assay (Rescue %) 1 μM [1] [%]	Necroptosis inhibition assay (Rescue %) 10 μM [1] [%]
Nc1ncc(-c2cnn(C3CCN(CCC4CCN(C(=O)CNc5ccc6c(c5)C(=O)N(C5CCC(=O)NC5=O)C6=O)CC4)CC3)c2)nc1C(=O)O[C@@H](C(=O)Nc1ccc(F)cc1)c1ccccc1 (stereo partly drawn) [TDH-199, (R)-2-((4-fluorophenyl)amino)-2-oxo-1-phenylethyl 3-amino-6-(1-(1-(2-(1-((2-(2,6-dioxopiperidin-3-yl)-1,3-dioxoisoindolin-5-yl)glycyl)piperidin-4-yl)ethyl)piperidin-4-yl)-1H-pyrazol-4-yl)pyrazine-2-carboxylate]	61.77	38.35	1.7			36.93	18
Nc1ncc(-c2cnn(C3CCN(CCOCCNC(=O)CNc4cccc5c4C(=O)N(C4CCC(=O)NC4=O)C5=O)CC3)c2)nc1C(=O)O[C@@H](C(=O)Nc1ccc(F)cc1)c1ccccc1 (stereo partly drawn) [TDH-096, (R)-2-((4-fluorophenyl)amino)-2-oxo-1-phenylethyl 3-amino-6-(1-(1-(2-(2-(2-((2-(2,6-dioxopiperidin-3-yl)-1,3-dioxoisoindolin-4-yl)amino)acetamido)ethoxy)ethyl)piperidin-4-yl)-1H-pyrazol-4-yl)pyrazine-2-carboxylate]	60.02	68.41	4			32.98	30.53
Nc1ncc(-c2cnn(C3CCN(C(=O)COCCOCCNc4ccc5c(c4)C(=O)N(C4CCC(=O)NC4=O)C5=O)CC3)c2)nc1C(=O)O[C@@H](C(=O)Nc1ccc(F)cc1)c1ccccc1 (stereo partly drawn) [TDH-105, (R)-2-((4-fluorophenyl)amino)-2-oxo-1-phenylethyl 3-amino-6-(1-(1-(2-(2-(2-((2-(2,6-dioxopiperidin-3-yl)-1,3-dioxoisoindolin-5-yl)amino)ethoxy)ethoxy)acetyl)piperidin-4-yl)-1H-pyrazol-4-yl)pyrazine-2-carboxylate]	43.02	40.8	6.1			27.07	15.46
Nc1ncc(-c2cnn(C3CCN(CCOC4CCN(c5cccc6c5C(=O)N(C5CCC(=O)NC5=O)C6=O)CC4)CC3)c2)nc1C(=O)OC(C(=O)Nc1ccc(F)cc1)c1ccccc1 (stereo not shown) [TDH-253, 2-((4-fluorophenyl)amino)-2-oxo-1-phenylethyl 3-amino-6-(1-(1-(2-((1-(2-(2,6-dioxopiperidin-3-yl)-1,3-dioxoisoindolin-4-yl)piperidin-4-yl)oxy)ethyl)piperidin-4-yl)-1H-pyrazol-4-yl)pyrazine-2-carboxylate]	80.74	59.15	10			65.01	36.1
Nc1ncc(-c2cnn([C@@H]3CCN(CCOCCOCCNC(=O)CNc4ccc5c(c4)C(=O)N(C4CCC(=O)NC4=O)C5=O)C3)c2)nc1C(=O)OC(C(=O)Nc1ccc(F)cc1)c1ccccc1 (stereo partly drawn) [TDH-268, 2-((4-fluorophenyl)amino)-2-oxo-1-phenylethyl 3-amino-6-(1-((3R)-1-(2-(2-(2-(2-((2-(2,6-dioxopiperidin-3-yl)-1,3-dioxoisoindolin-5-yl)amino)acetamido)ethoxy)ethoxy)ethyl)pyrrolidin-3-yl)-1H-pyrazol-4-yl)pyrazine-2-carboxylate]	7.05	35.64	6.9			21.45	51.22
Nc1ncc(-c2cnn(C3CCN(C(=O)C4CCN(C(=O)CNc5cccc6c5C(=O)N(C5CCC(=O)NC5=O)C6=O)CC4)CC3)c2)nc1C(=O)OC(C(=O)Nc1ccc(F)cc1)c1ccccc1 (stereo not shown) [TDH-275, 2-((4-fluorophenyl)amino)-2-oxo-1-phenylethyl 3-amino-6-(1-(1-(1-((2-(2,6-dioxopiperidin-3-yl)-1,3-dioxoisoindolin-4-yl)glycyl)piperidine-4-carbonyl)piperidin-4-yl)-1H-pyrazol-4-yl)pyrazine-2-carboxylate]	57.84	63.11	4.9			69.59	69.98

More lines, main results first:

Degradation assay (Degradation %) 1 μM [2] [%]	Degradation assay (Degradation %) 10 μM [2] [%]	Kd [3] [nM]	Structure (SMILES)	Necroptosis inhibition assay (Rescue %) 1 μM ([1]; FADD−/− Jurkat cells) [%]	Necroptosis inhibition assay (Rescue %) 10 μM ([1]; FADD−/− Jurkat cells) [%]	Necroptosis inhibition assay (Rescue %) 1 μM [1] [%]	Necroptosis inhibition assay (Rescue %) 10 μM [1] [%]
87.16	90.47	2	Nc1ncc(-c2cnn(C3CCN(CCCN4CC5CC4CN5C(=O)CNc4ccc5c(c4)C(=O)N(C4CCC(=O)NC4=O)C5=O)CC3)c2)nc1C(=O)O[C@@H](C(=O)Nc1ccc(F)cc1)c1ccccc1 (stereo partly drawn) [TDH-454, (R)-2-((4-fluorophenyl)amino)-2-oxo-1-phenylethyl 3-amino-6-(1-(1-(3-(5-((2-(2,6-dioxopiperidin-3-yl)-1,3-dioxoisoindolin-5-yl)glycyl)-2,5-diazabicyclo[2.2.1]heptan-2-yl)propyl)piperidin-4-yl)-1H-pyrazol-4-yl)pyrazine-2-carboxylate]	65.44	39.99		
94.85	85.11	0.76	Nc1ncc(-c2cnn(C3CCN(CCC4CCN(C(=O)CCc5cccc6c5CN(C5CCC(=O)NC5=O)C6=O)CC4)CC3)c2)nc1C(=O)O[C@@H](C(=O)Nc1ccc(F)cc1)c1ccccc1 (stereo partly drawn) [TDH-385, (R)-2-((4-fluorophenyl)amino)-2-oxo-1-phenylethyl 3-amino-6-(1-(1-(2-(1-(3-(2-(2,6-dioxopiperidin-3-yl)-1-oxoisoindolin-4-yl)propanoyl)piperidin-4-yl)ethyl)piperidin-4-yl)-1H-pyrazol-4-yl)pyrazine-2-carboxylate]			53.62	14.09
87.39	79.77	2.7	Nc1ncc(-c2cnn(C3CCN(C(=O)COC4CCN(C(=O)C5CCN(c6cccc7c6C(=O)N(C6CCC(=O)NC6=O)C7=O)CC5)CC4)CC3)c2)nc1C(=O)O[C@@H](C(=O)Nc1ccc(F)cc1)c1ccccc1 (stereo partly drawn) [TDH-397, (R)-2-((4-fluorophenyl)amino)-2-oxo-1-phenylethyl 3-amino-6-(1-(1-(2-((1-(1-(2-(2,6-dioxopiperidin-3-yl)-1,3-dioxoisoindolin-4-yl)piperidine-4-carbonyl)piperidin-4-yl)oxy)acetyl)piperidin-4-yl)-1H-pyrazol-4-yl)pyrazine-2-carboxylate]			53.83	37.24
46.82	65.07	2.5	Nc1ncc(-c2cnn(C3CCN(C(=O)CC4CCN(C(=O)COc5cccc6c5C(=O)N(C5CCC(=O)NC5=O)C6=O)CC4)CC3)c2)nc1C(=O)O[C@@H](C(=O)Nc1ccc(F)cc1)c1ccccc1 (stereo partly drawn) [TDH-337, (R)-2-((4-fluorophenyl)amino)-2-oxo-1-phenylethyl 3-amino-6-(1-(1-(2-(1-(2-((2-(2,6-dioxopiperidin-3-yl)-1,3-dioxoisoindolin-4-yl)oxy)acetyl)piperidin-4-yl)acetyl)piperidin-4-yl)-1H-pyrazol-4-yl)pyrazine-2-carboxylate]			32.31	45.5
57.4	17.94	0.22	COc1ccc(C(=O)N2CCC(CCN3CCC(n4cc(-c5cnc(N)c(C(=O)O[C@@H](C(=O)Nc6ccc(F)cc6)c6ccccc6)n5)cn4)CC3)CC2)cc1N1CCC(=O)NC1=O [TDH-446, (R)-2-((4-fluorophenyl)amino)-2-oxo-1-phenylethyl 3-amino-6-(1-(1-(2-(1-(3-(2,4-dioxotetrahydropyrimidin-1(2H)-yl)-4-methoxybenzoyl)piperidin-4-yl)ethyl)piperidin-4-yl)-1H-pyrazol-4-yl)pyrazine-2-carboxylate]	34.93	8.47		
